Values quoted from earlier work, collected in patent US20230184643A1, “METHOD FOR MEASURING OR IDENTIFYING A COMPONENT OF INTEREST IN SPECIMENS” (SHIMADZU CORPORATION, priority 2020, published 2023).
Marks after values point to notes of the source that are not given here.

Details: Table 4.1; Drug bank accessed November 2020

For `CN[C@@H]1[C@@H](O)[C@@H](O[C@@H]2[C@@H](O)[C@H](O[C@H]3OC(CN)=CC[C@H]3N)[C@@H](N)C[C@H]2N)OC[C@]1(C)O` [Sisomicin], the LogP is listed as −4.3^a.
